How the values were obtained:
Holstein cows [1] = assay: Dairy cattle feeding trial, dietary monensin in linseed oil diets; format: in vivo
Method: (§1) Eight Holstein cows are selected and equipped with rumen and duodenal cannulae. All cows are housed in individual tie stalls and are commencing the trial at 45 days in lactation.
(§2) The eight cows are employed in two four-by-four Latin Square designs. Each square has four cows with four treatments imposed. The four treatments are 0, 10, 40 and 70 mg/kg DM of dietary monensin. Each square has a different source of dietary fatty acids. In the first square, dietary fat is supplied by linseed oil, which has a high proportion of fatty acid linolenate. The second square has the dietary fat supplied by MEGALAC, which is a calcium salt of palm oil fatty acids having a high proportion of fatty acid oleate.
(§3) Cows are fed identical diets in both squares except for source of fatty acids, and are formulated for high production. Nutrient composition is formulated for all diets at 17% crude protein with 65% as rumen undegradable protein, 26% Neutral Detergent Fiber, 1.7 Mcal/kg net energy. All diets contain 4% added fat on a dry matter basis from MEGALAC or linseed oil. A daily dry matter intake of 25 kg/cow is calculated to deliver approximately 1 kg of linseed oil or MEGALAC per cow per day. Remaining dietary ingredients are low in fat, and include alfalfa haylage, corn silage, corn, barley, soybean meal, blood meal, Smartamine-M (rumen bypass methionine), sodium bicarbonate and vitamin-mineral premix. All diets are offered as Total Mixed Rations twice daily in quantities to assure at least 10% refusal per day of the amount offered.
(§4) Cows are fed their assigned diets for two weeks, with week one as an adaptation and week two as the experimental feeding period. Sampling is on the last 3 days of this second week. All cows are then moved onto a different diet in such a manner that by the end of the trial all cows have received all diets within each Latin Square.
(§5) During the second week of each period daily, dry matter intake and milk production are recorded. Total mixed rations are sampled daily and composited weekly. These are analyzed for crude protein, NDF and total fat. During the last 3 days of the second week individual proportional milk samples are taken and separated into two subsamples. One subsample is used to assay for total fat content and true protein, and the second is frozen for subsequent analysis of fatty acid profile in the milk.
(§6) During the last 3 days of the second week, rate of passage from the rumen is estimated using dye marker techniques. The liquid and solids markers are placed into the rumen daily beginning on day 7 of the adaptation period, with duodonal samples taken on the last 3 days of the experimental period. Duodenal samples are stored frozen for later analysis of total fat, fatty acid profile and marker. Concurrent rumen samples are taken. Liquid turnover rate is estimated from the dilution of dye in the liquid portion of rumen samples. Rumen contents are assayed for total fat, fatty acid profile and marker. Each Latin square is analyzed separately.

Holstein cows [2] = assay: Dairy cattle feeding trial, dietary monensin in MEGALAC diet; format: in vivo
Method: as §1, §2, §3, §4, §5, §6

Hereford steers [3] = assay: Beef cattle feeding trial, dietary monensin in linseed oil diet; format: in vivo
Method: (§7) Eight Hereford steers are selected and equipped with rumen and duodenal cannulae. All steers are housed in individual tie stalls. The duration of the trial is the last 90 days of the finishing period.
as §2, with “steers” for “cows”, “used” for “employed”, “mg” for “mg/kg DM”
(§8) Steers are fed identical diets in both squares except for source of fatty acids, and the diets are formulated for high rate of body weight gain (1 kg/day). All diets are calculated to deliver 0.75 kg/steer/day of added dietary linseed oil or MEGALAC. Remaining dietary ingredients are low in fat, and include corn silage, corn, barley, soybean meal, bloodmeal, Smartamine-M (rumen bypass methionine), sodium bicarbonate and vitamin-mineral premix. All diets are offered as Total Mixed Rations twice daily in quantities to assure at least 10% refusal per day of the amount offered.
as §4, with “Steers” for “Cows”, “steers” for “cows”
(§9) During the second week of each period daily dry matter intakes are recorded. Total mixed rations are sampled daily and composited weekly. These are analyzed for crude protein, NDF and total fat. During the last 3 days of the second week individual body weights are recorded.
as §6, with “week” for “week,”, “duodenal” for “duodonal”

Hereford steers [4] = assay: Beef cattle feeding trial, dietary monensin in MEGALAC diet; format: in vivo
Method: as §7
as §2, with “steers” for “cows”, “used” for “employed”, “mg” for “mg/kg DM”
as §8
as §4, with “Steers” for “Cows”, “steers” for “cows”
as §9
as §6, with “week” for “week,”, “duodenal” for “duodonal”

rumen fluid = conditions: in vitro, J. Dairy Sci., 78, 2797 (1995); cited from earlier work
[5] = 40 mg monensin, P<0.05, linseed oil diet
[6] = 70 mg monensin, P<0.05, linseed oil diet
[7] = 40 mg monensin, P<0.05, MEGALAC diet
[8] = 70 mg monensin, P<0.05, MEGALAC diet
[9] = 10 and 40 mg monensin, P<0.05, steers

## CC[C@@]1([C@@H]2O[C@@H]([C@H]3O[C@@](O)(CO)[C@H](C)C[C@@H]3C)C[C@@H]2C)CC[C@H]([C@]2(C)CC[C@]3(C[C@H](O)[C@@H](C)[C@@H]([C@@H](C)[C@@H](OC)[C@H](C)C(=O)O)O3)O2)O1 [monensin]
Holstein cows [1]; 0 to 70 mg monensin addition, linseed oil diet, dairy cows
  DMI: no effect
Holstein cows [1]; 10 mg monensin, P<0.05, linseed oil diet
  Milk linolenate increase vs. 0 mg supplementation: 25%
Holstein cows [1]; 10 mg monensin, P<0.1, linseed oil diet
  Rumen rate of passage: tends to increase
Holstein cows [1]; 10 mg monensin, tends (P<0.1), linseed oil diet
  Milk production improvement: 3 lbs. per day
Holstein cows [1]; [5]
  Milk linolenate increase vs. 0 mg supplementation: 28%
  Milk production improvement: 3.5 lb/day
Holstein cows [1]; 70 mg monensin vs 40 mg, linseed oil diet
  Milk production: no further improvement
Holstein cows [1]; [6]
  Milk fat percentage reduction: 0.3 percentage points
  Milk linolenate increase vs. 0 mg supplementation: 37%
Holstein cows [1]; 70 mg monensin, P<0.1, linseed oil diet
  Rumen liquid turnover rate increase: 5%
Holstein cows [1]; 70 mg monensin, linseed oil diet
  Bypass linolenic acid: about 30%
Holstein cows [1]; 10 and 40 mg monensin, P<0.05, linseed oil diet
  Increase of linolenic acid in duodenal contents: 20 percentage points
Holstein cows [1]; 10 and 40 mg monensin, linseed oil diet (0 mg: 8%)
  Estimated rumen bypass rate for linolenic acid: 28%
Holstein cows [1]; 40 and 70 mg monensin, linseed oil diet
  Rumen rate of passage increase: 6%
Holstein cows [1]; between 0, 10 and 40 mg monensin, linseed oil diet
  Rumen liquid turnover rate: not different
Holstein cows [1]; diets with different concentrations of monensin, linseed oil diet
  Milk protein percentages: not different
Holstein cows [1]; lower inclusion rates of monensin, linseed oil diet
  Milk fat percentage: only a tendency for a reduction
Holstein cows [2]; 0 to 70 mg monensin addition, MEGALAC diet, dairy cows
  DMI: no effect
Holstein cows [2]; 10 mg monensin, P<0.05, MEGALAC diet
  Milk oleate increase vs. 0 mg supplementation: 22%
Holstein cows [2]; 10 mg monensin, P<0.1, MEGALAC diet
  Rumen rate of passage: tends to increase
Holstein cows [2]; 10 mg monensin, tends (P<0.1), MEGALAC diet
  Milk production improvement: 2.8 lbs. per day
Holstein cows [2]; [7]
  Milk oleate increase vs. 0 mg supplementation: 31%
  Milk production improvement: 3.9 lb/day
Holstein cows [2]; 70 mg monensin vs 40 mg, MEGALAC diet
  Milk production: no further improvement
Holstein cows [2]; 70 mg monensin, MEGALAC diet
  Bypass linolenic acid: about 33%
Holstein cows [2]; [8]
  Milk fat percentage reduction: 0.25 percentage points
  Milk oleate increase vs. 0 mg supplementation: 39%
Holstein cows [2]; 70 mg monensin, P<0.1, MEGALAC diet
  Rumen liquid turnover rate increase: 6%
Holstein cows [2]; 10 and 40 mg monensin, MEGALAC diet (0 mg: 56%)
  Estimated rumen bypass rate for oleic acid: 74%
Holstein cows [2]; 10 and 40 mg monensin, P<0.05, MEGALAC diet
  Increase of oleic acid in duodenal contents: 18 percentage points
Holstein cows [2]; 40 and 70 mg monensin, MEGALAC diet
  Rumen rate of passage increase: 6.4%
Holstein cows [2]; between 0, 10 and 40 mg monensin, MEGALAC diet
  Rumen liquid turnover rate: not different
Holstein cows [2]; diets with different concentrations of monensin, MEGALAC diet
  Milk protein percentages: not different
Holstein cows [2]; lower inclusion rates of monensin, MEGALAC diet
  Milk fat percentage: only a tendency for a reduction
Hereford steers [3]; 10 mg monensin, P<0.1, steers
  Rumen rate of passage: tends to increase
Hereford steers [3]; 10 mg monensin, steers
  DMI: no significant effect
Hereford steers [3]; 70 mg monensin, P<0.1, steers
  Rumen liquid turnover rate increase: 5%
Hereford steers [3]; 70 mg monensin, steers
  Bypass linolenic acid: about 29%
Hereford steers [3]; [9]
  Increase of linolenic acid in duodenal contents: 24 percentage points
Hereford steers [3]; 10 and 40 mg monensin, steers (0 mg: about 10%)
  Rumen bypass rate for linolenic acid: 34%
Hereford steers [3]; 40 and 70 mg monensin diets, steers
  DMI reduction: 5%
Hereford steers [3]; 40 and 70 mg monensin, steers
  Rumen rate of passage increase: 6%
Hereford steers [3]; between 0, 40 and 70 mg monensin, steers
  Rumen liquid turnover rate: not different
Hereford steers [4]; 10 mg monensin addition, steers
  DMI: no effect
Hereford steers [4]; 10 mg monensin, P<0.1, steers
  Rumen rate of passage: tends to increase
Hereford steers [4]; 70 mg monensin, P<0.1, steers
  Rumen liquid turnover rate increase: 4%
Hereford steers [4]; 70 mg monensin, steers
  Bypass linolenic acid: about 39%
Hereford steers [4]; [9]
  Increase of oleic acid in duodenal contents: 22 percentage points
Hereford steers [4]; 10 and 40 mg monensin, steers (0 mg: 66%)
  Estimated rumen bypass rate for oleic acid: 88%
Hereford steers [4]; 40 and 70 mg monensin, steers
  DMI reduction compared to controls: 8%
  Rumen rate of passage increase: 5.4%
Hereford steers [4]; between 0, 10 and 40 mg monensin, steers
  Rumen liquid turnover rate: not different

## CC1(C)S[C@@H]2[C@H](NC(=O)[C@H](N)c3ccc(O)cc3)C(=O)N2[C@H]1C(=O)O [amoxicillin]
Rumen fluid
  Antimicrobial inhibition of lipolysis and lipid biohydrogenation of soybean oil: most potent inhibitors

Source: patent US20030007998A1, “Unsaturated lipid-enriched feedstock for ruminants” (priority 2001, published 2003)
